Results as given in US11504268B2, “Wound treatment system” (Ethicon, Inc., priority 2018, dated 2022).

Tested on: S. aureus
Experiment: Vapor-phase triclosan delivery to model wound (inoculated Petri dishes), bacterial growth after incubation
Assay type: cell-based
Settings: for Bacterial Growth after 37° C. incubation; Exposure to wound treatment system: 3 hr / Bacterial Growth after 37° C. incubation; Exposure to wound treatment system: Additional 17 hr: inoculated
Method: The experimental data were obtained with a model air-activated heating elements (7 Hour Hand Warmers, Grabber, Grand Rapids, Mich.) surrounding a model wound represented by inoculated Petri dishes with 5 ml of 45C TSA agar containing about 6 log CFU/ml S. aureus. For testing, from 1 to 8 triclosan strips, each containing 9 mg of triclosan, were positioned on heating elements in proximity to inoculated Petri dishes. The assembly was covered creating an enclosed compartment around the inoculated Petri dishes, with triclosan patches within thusly formed compartment on the heating elements but not in contact with the inoculated Petri dishes. The inoculated Petri dishes were taken out after 3 hr and 17 hour exposure at ambient temperature (of which heating packs provided about 7 hours of heat) and incubated at 37° C. for 24 hr to allow the bacterial colonies, if any, to grow and be evaluated. Controls tested included the same model without any heating elements; heating elements in a system with no triclosan; no heating, no triclosan for confirming inoculation and bacterial growth, no heating no triclosan no inoculation for confirming agar was not contaminated.

Oc1cc(Cl)ccc1Oc1ccc(Cl)cc1Cl [triclosan]
Bacterial Growth after 37° C. incubation; Exposure to wound treatment system: 3 hr (0 heating elements (no heat), 1 triclosan patch, 3 hr exposure): Full growth
Bacterial Growth after 37° C. incubation; Exposure to wound treatment system: Additional 17 hr (0 heating elements (no heat), 1 triclosan patch, 17 hr exposure): Full
Bacterial Growth after 37° C. incubation; Exposure to wound treatment system: 3 hr (0 heating elements (no heat), 2 triclosan patches, 3 hr exposure): Full growth
Bacterial Growth after 37° C. incubation; Exposure to wound treatment system: Additional 17 hr (0 heating elements (no heat), 2 triclosan patches, 17 hr exposure): Full
Bacterial Growth after 37° C. incubation; Exposure to wound treatment system: 3 hr (0 heating elements (no heat), 4 triclosan patches, 3 hr exposure): Partial
Bacterial Growth after 37° C. incubation; Exposure to wound treatment system: Additional 17 hr (0 heating elements (no heat), 4 triclosan patches, 17 hr exposure): Minimal
Bacterial Growth after 37° C. incubation; Exposure to wound treatment system: 3 hr (0 heating elements (no heat), 8 triclosan patches, 3 hr exposure): partial growth
Bacterial Growth after 37° C. incubation; Exposure to wound treatment system: Additional 17 hr (0 heating elements (no heat), 8 triclosan patches, 17 hr exposure): full antibacterial effect and NONE
Bacterial Growth after 37° C. incubation; Exposure to wound treatment system: 3 hr (4 heating elements, 1 triclosan patch, 3 hr exposure): NONE
Bacterial Growth after 37° C. incubation; Exposure to wound treatment system: Additional 17 hr (4 heating elements, 1 triclosan patch, 17 hr exposure): NONE
Bacterial Growth after 37° C. incubation; Exposure to wound treatment system: 3 hr (4 heating elements, 2 triclosan patches, 3 hr exposure (tests 3 and 4)): NONE
Bacterial Growth after 37° C. incubation; Exposure to wound treatment system: Additional 17 hr (4 heating elements, 2 triclosan patches, 17 hr exposure (tests 3 and 4)): NONE
Bacterial Growth after 37° C. incubation; Exposure to wound treatment system: 3 hr (4 heating elements, 4 triclosan patches, 3 hr exposure): NONE
Bacterial Growth after 37° C. incubation; Exposure to wound treatment system: Additional 17 hr (4 heating elements, 4 triclosan patches, 17 hr exposure): NONE
Bacterial Growth after 37° C. incubation; Exposure to wound treatment system: 3 hr (4 heating elements, 8 triclosan patches (9 mg each), 3 hr exposure): NONE
Bacterial Growth after 37° C. incubation; Exposure to wound treatment system: Additional 17 hr (4 heating elements, 8 triclosan patches (9 mg each), 17 hr exposure): NONE
bactericidal effect on S. aureus with vapor transfer of triclosan (in presence of heat elements, 1 strip of triclosan): full bactericidal effect
inhibition of bacterial growth (tests #1-4, 8: 4 heating elements, from 1 to 8 triclosan patches): full inhibition of bacterial growth
antibacterial effect (without heat elements, most tests): lack of antibacterial effect
